According to patent US20240358693A1, “METHODS OF TREATING PAIN” (Aisa Pharma, Inc., priority 2023, published 2024):

Test system: participants with SSc-RP
Assay: Average duration of weekly RP attacks (minutes)
Type: in vivo, human
Source text: The absolute change in average duration of weekly RP attacks from baseline to the end of each dosing period was and will be a secondary outcome variable. The sponsor-developed participant-informed diary was and will be used to record data. Average duration of weekly RP attacks is defined as the total duration of RP attacks divided by total number of RP attacks within the last 7 days of each dosing period. Total duration of RP attacks during the last 7 days of screening period divided by the total number of RP attacks will be used as baseline for the analysis of all periods. The variable will be calculated similar to frequency data as before.

[1] = Cilnidipine 20 mg, Excluding Outliers, ITT Population - Part A
[2] = Cilnidipine 20 mg, Excluding Outliers, by Baseline RCS, subgroup 1, ITT Population - Part A
[3] = Cilnidipine 20 mg, by Baseline RCS, subgroup 1, ITT Population - Part A
[4] = Pooled Cilnidipine 10 mg and Cilnidipine 10 mg + Tadalafil 5 mg, n=3, Excluding Outliers, ITT Part A
[5] = Pooled Cilnidipine 10 mg and Cilnidipine 10 mg + Tadalafil 5 mg, n=3, ITT Part A
[6] = Pooled Cilnidipine 10 mg and Cilnidipine 10 mg + Tadalafil 5 mg, Baseline RCS subgroup 1 (unnamed), ITT Part A
[7] = Pooled Cilnidipine 10 mg and Cilnidipine 10 mg + Tadalafil 5 mg, Baseline RCS subgroup 2 (unnamed), ITT Part A
[8] = Pooled Cilnidipine 10 mg and Cilnidipine 10 mg + Tadalafil 5 mg, Excluding Outliers, Baseline RCS subgroup 1 (unnamed), ITT Part A
[9] = Pooled Cilnidipine 10 mg and Cilnidipine 10 mg + Tadalafil 5 mg, Excluding Outliers, Baseline RCS subgroup 2 (unnamed), ITT Part A
[10] = Pooled Cilnidipine 10 mg and Cilnidipine 10 mg + Tadalafil 5 mg, Excluding Outliers, ITT Population - Part A
[11] = Pooled Cilnidipine 10 mg and Cilnidipine 10 mg + Tadalafil 5 mg, Excluding Outliers, by Baseline RCS, subgroup 1, ITT Population - Part A

COCCOC(=O)C1=C(C)NC(C)=C(C(=O)OC/C=C/c2ccccc2)C1c1cccc([N+](=O)[O-])c1 (centres unmarked) [Cilnidipine, cilnidipine]
Average Duration of Weekly RP Attacks (All Attacks) Change from Baseline, Median [1]: -1.09 min
Average Duration of Weekly RP Attacks (All Attacks) Percent Change from Baseline, Mean [1]: −24.97%
Average Duration of Weekly RP Attacks (All Attacks) Percent Change from Baseline, Median [1]: −24.97%
Average Duration of Weekly RP Attacks (All Attacks), Mean [1]: 16.73 min
Average Duration of Weekly RP Attacks (All Attacks), Median [1]: 16.73 min
Average Duration of Weekly RP Attacks (All Attacks) Change from Baseline, Mean [2]: -1.09 min
Average Duration of Weekly RP Attacks (All Attacks) Change from Baseline, Median [2]: -1.09 min
Average Duration of Weekly RP Attacks (All Attacks) Percent Change from Baseline, Mean [2]: −24.97%
Average Duration of Weekly RP Attacks (All Attacks) Percent Change from Baseline, Median [2]: −24.97%
Average Duration of Weekly RP Attacks (All Attacks), Mean [2]: 16.73 min
Average Duration of Weekly RP Attacks (All Attacks), Median [2]: 16.73 min
Average Duration of Weekly RP Attacks (All Attacks) Change from Baseline, Mean (Cilnidipine 20 mg, ITT Part A): -1.09 min
Average Duration of Weekly RP Attacks (All Attacks) Change from Baseline, Median (Cilnidipine 20 mg, ITT Part A): -1.09 min
Average Duration of Weekly RP Attacks (All Attacks) Percent Change from Baseline, Mean (Cilnidipine 20 mg, ITT Part A): −24.97%
Average Duration of Weekly RP Attacks (All Attacks) Percent Change from Baseline, Median (Cilnidipine 20 mg, ITT Part A): −24.97%
Average Duration of Weekly RP Attacks (All Attacks), Mean (Cilnidipine 20 mg, ITT Part A): 16.73 min
Average Duration of Weekly RP Attacks (All Attacks), Median (Cilnidipine 20 mg, ITT Part A): 16.73 min
Average Duration of Weekly RP Attacks (All Attacks) Change from Baseline, Mean [3]: -1.09 min
Average Duration of Weekly RP Attacks (All Attacks) Change from Baseline, Median [3]: -1.09 min
Average Duration of Weekly RP Attacks (All Attacks) Percent Change from Baseline, Mean [3]: −24.97%
Average Duration of Weekly RP Attacks (All Attacks) Percent Change from Baseline, Median [3]: −24.97%
Average Duration of Weekly RP Attacks (All Attacks), Mean [3]: 16.73 min
Average Duration of Weekly RP Attacks (All Attacks), Median [3]: 16.73 min
Duration (Cilnidipine (20 mg) (n = 3)): −20%
Mean % reduction in duration (Cilnidipine (20 mg) (n = 3)): 20.0%
Mean duration of attack at baseline (Cilnidipine (20 mg) (n = 3)): 19.4
Average Duration of Weekly Symptomatic RP Attacks, Change from Baseline, Mean [4]: -12.11 min
Average Duration of Weekly Symptomatic RP Attacks, Change from Baseline, Median [4]: -16.74 min
Average Duration of Weekly Symptomatic RP Attacks, Mean [4]: 29.46 min
Average Duration of Weekly Symptomatic RP Attacks, Median [4]: 31.64 min
Average Duration of Weekly Symptomatic RP Attacks, Percent Change from Baseline, Mean [4]: −22.40%
Average Duration of Weekly Symptomatic RP Attacks, Percent Change from Baseline, Median [4]: −33.84%
Average Duration of Weekly Symptomatic RP Attacks, Change from Baseline, Mean [5]: -12.11 min
Average Duration of Weekly Symptomatic RP Attacks, Change from Baseline, Median [5]: -16.74 min
Average Duration of Weekly Symptomatic RP Attacks, Mean [5]: 29.46 min
Average Duration of Weekly Symptomatic RP Attacks, Median [5]: 31.64 min
Average Duration of Weekly Symptomatic RP Attacks, Percent Change from Baseline, Mean [5]: −22.40%
Average Duration of Weekly Symptomatic RP Attacks, Percent Change from Baseline, Median [5]: −33.84%
Average Duration of Weekly Symptomatic RP Attacks, Change from Baseline, Mean [6]: -8.26 min
Average Duration of Weekly Symptomatic RP Attacks, Change from Baseline, Median [6]: -8.26 min
Average Duration of Weekly Symptomatic RP Attacks, Mean [6]: 24.82 min
Average Duration of Weekly Symptomatic RP Attacks, Median [6]: 24.82 min
Average Duration of Weekly Symptomatic RP Attacks, Percent Change from Baseline, Mean [6]: −16.67%
Average Duration of Weekly Symptomatic RP Attacks, Percent Change from Baseline, Median [6]: −16.67%
Average Duration of Weekly Symptomatic RP Attacks, Change from Baseline, Mean [7]: -19.82 min
Average Duration of Weekly Symptomatic RP Attacks, Change from Baseline, Median [7]: -19.82 min
Average Duration of Weekly Symptomatic RP Attacks, Mean [7]: 38.75 min
Average Duration of Weekly Symptomatic RP Attacks, Median [7]: 38.75 min
Average Duration of Weekly Symptomatic RP Attacks, Percent Change from Baseline, Mean [7]: −33.84%
Average Duration of Weekly Symptomatic RP Attacks, Percent Change from Baseline, Median [7]: −33.84%
Average Duration of Weekly Symptomatic RP Attacks, Change from Baseline, Mean [8]: -8.26 min
Average Duration of Weekly Symptomatic RP Attacks, Change from Baseline, Median [8]: -8.26 min
Average Duration of Weekly Symptomatic RP Attacks, Mean [8]: 24.82 min
Average Duration of Weekly Symptomatic RP Attacks, Median [8]: 24.82 min
Average Duration of Weekly Symptomatic RP Attacks, Percent Change from Baseline, Mean [8]: −16.67%
Average Duration of Weekly Symptomatic RP Attacks, Percent Change from Baseline, Median [8]: −16.67%
Average Duration of Weekly Symptomatic RP Attacks, Change from Baseline, Mean [9]: -19.82 min
Average Duration of Weekly Symptomatic RP Attacks, Change from Baseline, Median [9]: -19.82 min
Average Duration of Weekly Symptomatic RP Attacks, Mean [9]: 38.75 min
Average Duration of Weekly Symptomatic RP Attacks, Median [9]: 38.75 min
Average Duration of Weekly Symptomatic RP Attacks, Percent Change from Baseline, Mean [9]: −33.84%
Average Duration of Weekly Symptomatic RP Attacks, Percent Change from Baseline, Median [9]: −33.84%
Average Duration of Weekly RP Attacks (All Attacks) Change from Baseline, Mean [10]: -9.54 min
Average Duration of Weekly RP Attacks (All Attacks) Change from Baseline, Median [10]: -8.48 min
Average Duration of Weekly RP Attacks (All Attacks) Percent Change from Baseline, Mean [10]: −19.10%
Average Duration of Weekly RP Attacks (All Attacks) Percent Change from Baseline, Median [10]: −21.20%
Average Duration of Weekly RP Attacks (All Attacks), Mean [10]: 27.90 min
Average Duration of Weekly RP Attacks (All Attacks), Median [10]: 31.52 min
Average Duration of Weekly RP Attacks (All Attacks) Change from Baseline, Mean [11]: -4.13 min
Average Duration of Weekly RP Attacks (All Attacks) Change from Baseline, Median [11]: -4.13 min
Average Duration of Weekly RP Attacks (All Attacks) Percent Change from Baseline, Mean [11]: −9.97%
Average Duration of Weekly RP Attacks (All Attacks) Percent Change from Baseline, Median [11]: −9.97%
Average Duration of Weekly RP Attacks (All Attacks), Mean [11]: 24.76 min
Average Duration of Weekly RP Attacks (All Attacks), Median [11]: 24.76 min
